Bridge positions count the residues as written; N and C are the ends. Square brackets hold non-standard residues; d marks the D form. Peptide text beside a SMILES is read from it. Hyp = O=C(O)[C@@H]1C[C@@H](O)CN1; Cit = NC(=O)NCCC[C@H](N)C(=O)O
Assays:
[1] = target: hAM1 receptor (Homo sapiens, UniProt O60895+Q16602); assay: cAMP assay for in vitro receptor activation, hAM1-R; assay type: cell-based; conditions: cAMP assay, hAM1 receptor; read-out: hAM1R EC50
Outline: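 Read-out is intracellular cAMP as a measure of receptor activation. Cells stably overexpressing hAM1 were subcloned to a monoclonal line, then thawed and seeded at 8000 cells/well in DPBS with 0.05% casein and the phosphodiesterase inhibitor IBMX at 0.5 mM.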

[2] = Physical stability of peptide analogues (Thioflavin T fibrillation); assay type: physicochemical; conditions: maximum ThT signal normalized between hAMY maximum and buffer background; 40° C., shaking, four days; pH 7 per table title
Outline: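 Samples are stressed at 40 °C for four days, being shaken at 700 rpm before each 10-min fluorescence reading of 4 μM Thioflavin T. Buffers were pH 4 acetate or pH 7 phosphate. Reported values are smoothed maximum ThT signals as a percentage of the hAMY-to-background range.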

Chain of hAM1 receptor (Q16602 23-461): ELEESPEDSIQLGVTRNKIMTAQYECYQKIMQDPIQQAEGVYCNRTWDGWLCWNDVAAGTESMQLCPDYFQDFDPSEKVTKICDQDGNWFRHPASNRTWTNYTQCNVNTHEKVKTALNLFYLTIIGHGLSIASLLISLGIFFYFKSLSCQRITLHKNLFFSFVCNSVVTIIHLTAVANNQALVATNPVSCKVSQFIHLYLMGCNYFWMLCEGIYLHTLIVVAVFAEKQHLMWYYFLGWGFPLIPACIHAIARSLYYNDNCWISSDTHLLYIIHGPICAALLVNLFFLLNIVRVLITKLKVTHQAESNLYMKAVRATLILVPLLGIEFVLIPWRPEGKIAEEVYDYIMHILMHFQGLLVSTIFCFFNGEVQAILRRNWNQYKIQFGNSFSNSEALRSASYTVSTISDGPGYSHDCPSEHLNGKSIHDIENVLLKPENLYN
Chain of hAM1 receptor (O60895 43-175 partner): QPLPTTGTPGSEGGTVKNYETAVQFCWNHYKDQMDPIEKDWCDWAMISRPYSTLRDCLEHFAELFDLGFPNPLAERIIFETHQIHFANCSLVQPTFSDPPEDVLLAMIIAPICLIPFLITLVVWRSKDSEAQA

CC[C@H](C)[C@H](NC(=O)[C@H](CCCCN)NC(=O)[C@@H](NC(=O)[C@H](CCCNC(=N)N)NC(=O)[C@@H]1CCCN1C(=O)[C@H](C)NC(=O)[C@@H](NC(=O)[C@H](CC(N)=O)NC(=O)[C@H](CC(=O)O)NC(=O)[C@H](CCCCN)NC(=O)[C@H](CC(=O)O)NC(=O)[C@H](CCCCN)NC(=O)[C@H](CC(=O)O)NC(=O)[C@@H](NC(=O)[C@H](Cc1ccccc1)NC(=O)[C@H](CCC(N)=O)NC(=O)[C@H](Cc1ccc(O)cc1)NC(=O)[C@@H](NC(=O)[C@H](CCC(N)=O)NC(=O)[C@H](Cc1c[nH]cn1)NC(=O)[C@H](C)NC(=O)[C@H](CC(C)C)NC(=O)[C@H](CCCNC(N)=O)NC(=O)[C@H](CCC(N)=O)NC(=O)[C@@H](NC(=O)[C@@H](NC(=O)[C@@H]1CSSC[C@H](NC(=O)CN)C(=O)N[C@@H](CCCNC(=N)N)C(=O)N[C@@H]([C@@H](C)O)C(=O)NCC(=O)N[C@@H]([C@@H](C)O)C(=O)N1)[C@@H](C)O)C(C)C)[C@@H](C)CC)[C@@H](C)O)C(C)C)[C@@H](C)O)C(=O)NCC(=O)N1CCC[C@H]1C(=O)N[C@@H](CC(N)=O)C(=O)NCC(=O)N1C[C@H](O)C[C@H]1C(N)=O [compound 277] (H-GCRTGTCTVQ[Cit]LAHQIYQFTDKDKDNVAPRTKIGPNG[Hyp]-NH2; disulfide 2-7; N-terminus assumed)
EC50 [1]: > 5 µM | Max ThT signal (%) [2]: 21.600%

CC[C@H](C)[C@H](NC(=O)[C@H](CCC(N)=O)NC(=O)[C@H](Cc1c[nH]cn1)NC(=O)[C@H](C)NC(=O)[C@H](CC(C)C)NC(=O)[C@H](CCCNC(N)=O)NC(=O)[C@H](CCC(N)=O)NC(=O)[C@@H](NC(=O)[C@@H](NC(=O)[C@@H]1CSSC[C@H](NC(=O)CN)C(=O)N[C@@H](CCCNC(=N)N)C(=O)N[C@@H]([C@@H](C)O)C(=O)NCC(=O)N[C@@H]([C@@H](C)O)C(=O)N1)[C@@H](C)O)C(C)C)C(=O)N[C@@H](Cc1ccc(O)cc1)C(=O)N[C@@H](CCC(N)=O)C(=O)N[C@@H](Cc1ccccc1)C(=O)N[C@H](C(=O)N[C@@H](CC(=O)O)C(=O)N[C@@H](CCCCN)C(=O)N[C@@H](CC(=O)O)C(=O)N[C@@H](CCCCN)C(=O)N[C@@H](CC(=O)O)C(=O)N[C@@H](CC(N)=O)C(=O)N[C@H](C(=O)N[C@@H](C)C(=O)N1CCC[C@H]1C(=O)N[C@@H](CCCNC(=N)N)C(=O)N[C@H](C(=O)N[C@@H](CCCCN)C(=O)N[C@H](C(=O)NCC(=O)N1CCC[C@H]1C(=O)N[C@@H](CCC(N)=O)C(=O)NCC(=O)N[C@@H](Cc1ccc(O)cc1)C(N)=O)C(C)C)[C@@H](C)O)C(C)C)[C@@H](C)O [compound 298] (H-GCRTGTCTVQ[Cit]LAHQIYQFTDKDKDNVAPRTKVGPQGY-NH2; disulfide 2-7; N-terminus assumed)
EC50 [1]: > 5 µM | Max ThT signal (%) [2]: 31.250%

CC[C@H](C)[C@H](NC(=O)[C@H](CCC(N)=O)NC(=O)[C@H](Cc1c[nH]cn1)NC(=O)[C@H](C)NC(=O)[C@H](CC(C)C)NC(=O)[C@H](CCCNC(=N)N)NC(=O)[C@H](CCC(N)=O)NC(=O)[C@@H](NC(=O)[C@@H](NC(=O)[C@@H]1CSSC[C@H](NC(=O)CN)C(=O)N[C@@H](CCCNC(=N)N)C(=O)N[C@@H](Cc2ccccc2)C(=O)NCC(=O)N[C@@H]([C@@H](C)O)C(=O)N1)[C@@H](C)O)C(C)C)C(=O)N[C@@H](Cc1ccc(O)cc1)C(=O)N[C@@H](CCC(N)=O)C(=O)N[C@@H](Cc1ccccc1)C(=O)N[C@H](C(=O)N[C@@H](CC(=O)O)C(=O)N[C@@H](CCCCN)C(=O)N[C@@H](CC(=O)O)C(=O)N[C@@H](CCCCN)C(=O)N[C@@H](CC(=O)O)C(=O)N[C@@H](CC(N)=O)C(=O)N[C@H](C(=O)N[C@@H](C)C(=O)N1CCC[C@H]1C(=O)N[C@@H](CCCNC(=N)N)C(=O)N[C@@H](CO)C(=O)N[C@@H](CCCCN)C(=O)N[C@H](C(=O)N[C@@H](CO)C(=O)N1CCC[C@H]1C(=O)N[C@@H](CCC(N)=O)C(=O)N[C@H](C(=O)N1C[C@H](O)C[C@H]1C(N)=O)[C@@H](C)O)[C@@H](C)CC)C(C)C)[C@@H](C)O [compound 168] (H-GCRFGTCTVQRLAHQIYQFTDKDKDNVAPRSKISPQT[Hyp]-NH2; disulfide 2-7; N-terminus assumed)
EC50 [1]: > 5 µM | Max ThT signal (%) [2]: 12.500%

CC[C@H](C)[C@H](NC(=O)[C@H](CCC(N)=O)NC(=O)[C@H](Cc1c[nH]cn1)NC(=O)[C@H](C)NC(=O)[C@H](CC(C)C)NC(=O)[C@H](CCCNC(=N)N)NC(=O)[C@H](CCC(N)=O)NC(=O)[C@@H](NC(=O)[C@@H](NC(=O)[C@@H]1CSSC[C@H](NC(=O)CN)C(=O)N[C@@H](CCCNC(=N)N)C(=O)N[C@@H]([C@@H](C)O)C(=O)NCC(=O)N[C@@H]([C@@H](C)O)C(=O)N1)[C@@H](C)O)C(C)C)C(=O)N[C@@H](Cc1c[nH]cn1)C(=O)N[C@@H](CCC(N)=O)C(=O)N[C@@H](Cc1ccccc1)C(=O)N[C@H](C(=O)N[C@@H](CC(=O)O)C(=O)N[C@@H](CCCCN)C(=O)N[C@@H](CC(=O)O)C(=O)N[C@@H](CCCCN)C(=O)N[C@@H](CC(=O)O)C(=O)N[C@@H](CC(N)=O)C(=O)N[C@H](C(=O)N[C@@H](C)C(=O)N1CCC[C@H]1C(=O)N[C@@H](CCCNC(=N)N)C(=O)N[C@@H](CO)C(=O)N[C@@H](CCCCN)C(=O)N[C@H](C(=O)N[C@@H](CO)C(=O)N1CCC[C@H]1C(=O)N[C@@H](CCC(N)=O)C(=O)N[C@H](C(=O)N1C[C@H](O)C[C@H]1C(N)=O)[C@@H](C)O)[C@@H](C)CC)C(C)C)[C@@H](C)O [compound 228] (H-GCRTGTCTVQRLAHQIHQFTDKDKDNVAPRSKISPQT[Hyp]-NH2; disulfide 2-7; N-terminus assumed)
EC50 [1]: > 5 µM | Max ThT signal (%) [2]: 19.600%

CC[C@H](C)[C@H](NC(=O)[C@H](CCC(N)=O)NC(=O)[C@H](Cc1c[nH]cn1)NC(=O)[C@H](C)NC(=O)[C@H](CC(C)C)NC(=O)[C@H](CCCNC(=N)N)NC(=O)[C@H](CCC(N)=O)NC(=O)[C@@H](NC(=O)[C@@H](NC(=O)[C@@H]1CSSC[C@H](NC(=O)CN)C(=O)N[C@@H](CCCNC(=N)N)C(=O)N[C@@H]([C@@H](C)O)C(=O)NCC(=O)N[C@@H]([C@@H](C)O)C(=O)N1)[C@@H](C)O)C(C)C)C(=O)N[C@@H](Cc1ccc(O)cc1)C(=O)N[C@@H](CCC(N)=O)C(=O)N[C@@H](Cc1ccccc1)C(=O)N[C@H](C(=O)N[C@@H](CC(=O)O)C(=O)N[C@@H](CCCCN)C(=O)N[C@@H](Cc1ccccc1)C(=O)N[C@@H](CCCCN)C(=O)N[C@@H](CC(=O)O)C(=O)N[C@@H](CC(N)=O)C(=O)N[C@H](C(=O)N[C@@H](C)C(=O)N1CCC[C@H]1C(=O)N[C@@H](CCCNC(=N)N)C(=O)N[C@@H](CO)C(=O)N[C@@H](CCCCN)C(=O)N[C@H](C(=O)N[C@@H](CO)C(=O)N1CCC[C@H]1C(=O)N[C@@H](CCC(N)=O)C(=O)N[C@H](C(=O)N[C@@H](CCSC)C(N)=O)[C@@H](C)O)[C@@H](C)CC)C(C)C)[C@@H](C)O [compound 215] (H-GCRTGTCTVQRLAHQIYQFTDKFKDNVAPRSKISPQTM-NH2; disulfide 2-7)
EC50 [1]: > 5 µM | Max ThT signal (%) [2]: 0.600%

CC[C@H](C)[C@H](NC(=O)[C@H](CCCCN)NC(=O)[C@@H](NC(=O)[C@H](CCCNC(=N)N)NC(=O)[C@@H]1CCCN1C(=O)[C@H](C)NC(=O)[C@@H](NC(=O)[C@H](CC(N)=O)NC(=O)[C@H](CC(=O)O)NC(=O)[C@H](CCCCN)NC(=O)[C@H](CC(=O)O)NC(=O)[C@H](CCCCN)NC(=O)[C@H](CC(=O)O)NC(=O)[C@@H](NC(=O)[C@H](Cc1ccccc1)NC(=O)[C@H](CCC(N)=O)NC(=O)[C@H](Cc1ccc(O)cc1)NC(=O)[C@@H](NC(=O)[C@H](CCC(N)=O)NC(=O)[C@H](Cc1c[nH]cn1)NC(=O)[C@H](C)NC(=O)[C@H](CC(C)C)NC(=O)[C@H](CCCNC(=N)N)NC(=O)[C@H](CCC(N)=O)NC(=O)[C@@H](NC(=O)[C@@H](NC(=O)[C@@H]1CSSC[C@H](NC(=O)CN)C(=O)N[C@@H](CCCNC(=N)N)C(=O)N[C@@H]([C@@H](C)O)C(=O)NCC(=O)N[C@@H]([C@@H](C)O)C(=O)N1)[C@@H](C)O)C(C)C)[C@@H](C)CC)[C@@H](C)O)C(C)C)[C@@H](C)O)C(=O)NCC(=O)N1CCC[C@H]1C(=O)N[C@@H](CC(N)=O)C(=O)NCC(=O)N1C[C@H](O)C[C@H]1C(N)=O [compound 115] (H-GCRTGTCTVQRLAHQIYQFTDKDKDNVAPRTKIGPNG[Hyp]-NH2; disulfide 2-7; N-terminus assumed)
EC50 [1]: 0.13 µM | Max ThT signal (%) [2]: 2.500%

CC[C@H](C)[C@H](NC(=O)[C@H](CCC(N)=O)NC(=O)[C@H](Cc1c[nH]cn1)NC(=O)[C@H](C)NC(=O)[C@H](CC(C)C)NC(=O)[C@H](CCCNC(=N)N)NC(=O)[C@H](CCC(N)=O)NC(=O)[C@@H](NC(=O)[C@@H](NC(=O)[C@@H]1CSSC[C@H](NC(=O)CN)C(=O)N[C@@H](CCCNC(=N)N)C(=O)N[C@@H](Cc2ccccc2)C(=O)NCC(=O)N[C@@H]([C@@H](C)O)C(=O)N1)[C@@H](C)O)C(C)C)C(=O)N[C@@H](Cc1ccc(O)cc1)C(=O)N[C@@H](CCC(N)=O)C(=O)N[C@@H](Cc1ccccc1)C(=O)N[C@H](C(=O)N[C@@H](CC(=O)O)C(=O)N[C@@H](CCCCN)C(=O)N[C@@H](CC(=O)O)C(=O)N[C@@H](CCCCN)C(=O)N[C@@H](CC(=O)O)C(=O)N[C@@H](CC(N)=O)C(=O)N[C@H](C(=O)N[C@@H](C)C(=O)N1CCC[C@H]1C(=O)N[C@@H](CO)C(=O)N[C@@H](CO)C(=O)N[C@@H](CCCCN)C(=O)N[C@H](C(=O)N[C@@H](CO)C(=O)N1CCC[C@H]1C(=O)N[C@@H](CCC(N)=O)C(=O)N[C@H](C(=O)N1C[C@H](O)C[C@H]1C(N)=O)[C@@H](C)O)[C@@H](C)CC)C(C)C)[C@@H](C)O [compound 240] (H-GCRFGTCTVQRLAHQIYQFTDKDKDNVAPSSKISPQT[Hyp]-NH2; disulfide 2-7; N-terminus assumed)
EC50 [1]: > 5 µM | Max ThT signal (%) [2]: 3.700%
